One compound from ChEMBL document CHEMBL5108012, “Discovery of 2,5-diphenyl-1,3,4-thiadiazole derivatives as HDAC inhibitors with DNA binding affinity” (Eur J Med Chem, 2022) can be followed below.

Activity calls are given as the source filed them. No cut-off for these calls is given here.

The test system of test [1] is MOLT-4. Description: Antiproliferative activity against human MOLT-4 cells after 48 hrs by CCK-8 assay. It is filed as functional, cell-based. As to conditions: MOLT-4, 48 h.
Test [2] relates to MC-38. Description: Antitumor activity against mouse MC38 cells xenografted in C57BL/6 mouse assessed as necrosis in tumor at 50 to 100 mg/kg, ip administered every 2 days for 16 consecutive days measured by H and E staining method. The conditions noted are these: dose 50-100 mg/kg, time 16.0 day. It is filed as functional, organism-based.
Test [3] deals with HeLa. Description: Antiproliferative activity against human HeLa cells after 48 hrs by CCK-8 assay. It is filed as functional, cell-based. For orientation: Formazan colour is commonly taken as a measure of viable cells.
For test [4], the system named is MC-38. Description: Antitumor activity against mouse MC38 cells xenografted in C57BL/6 mouse assessed as decrease in tumor weight at 50 to 100 mg/kg, ip administered every 2 days for 16 consecutive days. It is filed as functional, organism-based. As to conditions: dose 50-100 mg/kg, time 16.0 day.
In test [5] the target is Histone deacetylase (HDAC1 and HDAC2) (Homo sapiens, UniProt Q13547+Q92769). Description: Inhibition of HDAC1/HDAC2 in human HeLa cell nuclear extract using Boc-Lys(Ac)-AMC as substrate and measured by fluorometric method. It is filed as cell-based.
The target in test [6] is Histone deacetylase (Homo sapiens) (UniProt Q13547+O15379+Q9UBN7+Q92769+Q9UQL6+Q8WUI4+Q9BY41+Q96DB2+P56524+Q9UKV0+Q969S8). The test can be described thus: Inhibition of HDAC in human HCT-116 cells assessed as increase in acetylated HH3 expression expression at 0.17 to 1.5 uM incubated for 48 hrs by Western blot analysis. It is filed as cell-based. The conditions noted are these: dose 0.17-1.5 µM. In general terms: Immunoblotting shows a protein as a band on a membrane.

The target in test [7] is T1, Protein deacetylase HDAC6 (Homo sapiens, UniProt Q9UBN7).
T1 sequence (Q9UBN7 whole entry): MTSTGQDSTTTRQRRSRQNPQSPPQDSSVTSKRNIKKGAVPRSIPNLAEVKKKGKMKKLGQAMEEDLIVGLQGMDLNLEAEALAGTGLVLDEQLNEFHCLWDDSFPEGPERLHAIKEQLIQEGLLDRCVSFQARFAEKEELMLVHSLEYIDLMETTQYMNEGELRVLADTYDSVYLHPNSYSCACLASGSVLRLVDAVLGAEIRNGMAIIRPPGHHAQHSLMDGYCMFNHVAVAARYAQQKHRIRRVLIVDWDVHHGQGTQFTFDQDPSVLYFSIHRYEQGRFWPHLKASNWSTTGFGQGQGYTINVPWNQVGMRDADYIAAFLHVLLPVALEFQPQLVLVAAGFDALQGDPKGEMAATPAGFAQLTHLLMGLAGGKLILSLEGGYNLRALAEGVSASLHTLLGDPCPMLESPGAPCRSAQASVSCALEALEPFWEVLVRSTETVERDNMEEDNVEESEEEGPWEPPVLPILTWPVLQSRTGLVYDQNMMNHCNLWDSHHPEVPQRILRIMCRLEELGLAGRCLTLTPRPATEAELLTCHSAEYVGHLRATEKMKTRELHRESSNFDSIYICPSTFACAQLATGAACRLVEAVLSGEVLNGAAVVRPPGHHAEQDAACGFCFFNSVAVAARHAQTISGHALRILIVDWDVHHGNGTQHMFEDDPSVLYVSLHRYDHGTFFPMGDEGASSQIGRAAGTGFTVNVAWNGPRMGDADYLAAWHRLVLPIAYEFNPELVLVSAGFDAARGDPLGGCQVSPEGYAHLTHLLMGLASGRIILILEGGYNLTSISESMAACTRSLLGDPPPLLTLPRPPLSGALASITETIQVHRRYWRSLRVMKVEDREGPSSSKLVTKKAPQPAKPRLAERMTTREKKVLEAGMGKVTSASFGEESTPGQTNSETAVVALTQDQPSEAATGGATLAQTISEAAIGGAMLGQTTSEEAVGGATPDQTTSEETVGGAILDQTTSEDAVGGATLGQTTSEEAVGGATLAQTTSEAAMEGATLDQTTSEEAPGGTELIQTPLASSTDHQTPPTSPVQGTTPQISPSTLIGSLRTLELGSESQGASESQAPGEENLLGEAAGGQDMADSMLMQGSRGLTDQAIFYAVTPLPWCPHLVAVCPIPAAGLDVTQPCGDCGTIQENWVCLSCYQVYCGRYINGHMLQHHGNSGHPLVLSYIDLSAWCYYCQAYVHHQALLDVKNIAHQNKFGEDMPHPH
The test can be described thus: Inhibition of HDAC6 in human HeLa cell nuclear extract using Boc-Lys(Ac)-AMC or Boc-Lys(triflouroacetyl)-AMC as substrate incubated for 30 mins and measured by fluorescence assay. It is filed as cell-free.

The test system of test [8] is Calf thymus DNA. The test can be described thus: Binding affinity to calf thymus DNA at 50 uM incubated for 30 mins and measured by UV-vis absorption spectroscopy. It is filed as nucleic-acid assay. As to conditions: Bos taurus.
Test [9] has as its target T2, Histone deacetylase 8 (Homo sapiens, UniProt Q9BY41).
T2 sequence (Q9BY41 whole entry): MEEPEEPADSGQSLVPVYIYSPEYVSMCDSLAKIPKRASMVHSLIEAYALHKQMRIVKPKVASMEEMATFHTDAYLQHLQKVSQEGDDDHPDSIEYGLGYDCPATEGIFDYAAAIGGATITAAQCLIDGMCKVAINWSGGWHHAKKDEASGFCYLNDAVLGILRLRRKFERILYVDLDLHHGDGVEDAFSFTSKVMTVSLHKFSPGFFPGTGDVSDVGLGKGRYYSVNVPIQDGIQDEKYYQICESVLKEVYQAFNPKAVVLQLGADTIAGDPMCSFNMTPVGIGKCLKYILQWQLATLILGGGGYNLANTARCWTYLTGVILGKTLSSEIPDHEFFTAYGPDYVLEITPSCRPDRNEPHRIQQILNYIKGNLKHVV
The test can be described thus: Inhibition of HDAC8 in human HeLa cell nuclear extract using Boc-Lys(Ac)-AMC or Boc-Lys(triflouroacetyl)-AMC as substrate incubated for 30 mins and measured by fluorescence assay. It is filed as cell-free.

The subject of test [10] is HepG2. Description: Antiproliferative activity against human HepG2 cells after 48 hrs by CCK-8 assay. It is filed as functional, cell-based. As to conditions: HepG2, 48 h.
Test [11] deals with K562. Description: Antiproliferative activity against human K562 cells after 48 hrs by CCK-8 assay. As to conditions: K562, 48 h. It is filed as functional, cell-based.
For test [12], the system named is DNA. Description: Binding affinity to pBR322 DNA (unknown origin) at 10 to 50 uM after 30 mins by Agarose gel electrophoresis. It is filed as nucleic-acid assay. The conditions noted are these: dose 10-50 µM.
Test [13] relates to MC-38. Description: Antitumor activity against mouse MC38 cells xenografted in C57BL/6 mouse assessed as induction of apoptosis in tumor at 50 to 100 mg/kg, ip administered every 2 days for 16 consecutive days measured by TUNEL staining based assay. It is filed as functional, organism-based. The conditions noted are these: dose 50-100 mg/kg, time 16.0 day.
Test [14] concerns MC-38. The test can be described thus: Antitumor activity against mouse MC38 cells xenografted in C57BL/6 mouse assessed as tumor growth inhibition at 50 mg/kg, ip administered every 2 days for 16 consecutive days. It is filed as functional. The conditions noted are these: MC-38, 384 h, time 16 day, read-out: TGI.
In test [15] the test system is HCT-116. The test can be described thus: Antiproliferative activity against human HCT-116 cells after 48 hrs by CCK-8 assay. It is filed as functional, cell-based. The conditions noted are these: HCT-116, 48 h.
Test [16] concerns HCT-116. Description: Induction of apoptosis in human HCT-116 cells assessed as increase in cleaved caspase-3 expression at 0.17 to 1.5 uM incubated for 48 hrs by Western blot analysis. It is filed as functional, cell-based. As to conditions: dose 0.17-1.5 µM.
Test [17] has as its system MC-38. The test can be described thus: Antiproliferative activity against mouse MC38 cells after 48 hrs by CCK-8 assay. It is filed as functional, cell-based. The conditions noted are these: MC-38, 48 h.

A word on the IC50: it is the concentration that inhibits the measured activity by half. `O=C(CCCCCOc1cccc(-c2nnc(-c3ccccc3)s2)c1)NO`: the IC50 was 150 nM in [1]; 780 nM in [3]; 38 nM in test [5]; 20 nM in test [7]; 3.03 µM in [9]; 1400 nM in test [10]. Besides, the IC50 stood at 910 nM in test [11], 470 nM in test [15] and 430 nM in test [17]. Besides, the outcome in [2], in [4], in test [8], in test [12], in [13] and in test [16] was Active. Moreover, the inhibition result in [6] is “Active”. In [14], the inhibition in vivo at 50 mg/kg was 66%.
